Source: US20240158446A1, “CYCLIC COMPOUND HAVING SELECTIVE INHIBITORY ACTION ON KRAS OVER HRAS AND NRAS” (CHUGAI SEIYAKU KABUSHIKI KAISHA, priority 2021, published 2024)
pKd: −log10 of the molar value. Read-outs that look alike come from different tables or passages of the source. Where a SMILES comes first, the peptide text is derived from it. Bridges are numbered along the chain shown (N, C = ends). [ ]: non-standard residue; d: D form. The star is where a group is joined. hPhe(3-Cl-4-CF3) = N[C@@H](CCc1ccc(C(F)(F)F)c(Cl)c1)C(=O)O; NPrPhe(4-CF3) = CCCN[C@@H](Cc1ccc(C(F)(F)F)cc1)C(=O)O; NEtPhe(4-F) = CCN[C@@H](Cc1ccc(F)cc1)C(=O)O; NMeGly(cPent) = CN[C@H](C(=O)O)C1CCCC1; Hyp = O=C(O)[C@@H]1C[C@@H](O)CN1; NMeD = CN[C@@H](CC(=O)O)C(=O)O; NMeL = CN[C@@H](CC(C)C)C(=O)O; Morpholide = C1CN(*)CCO1; NMeA = CN[C@@H](C)C(=O)O; Ac5c = NC1(C(=O)O)CCCC1; Aze = O=C(O)[C@@H]1CCN1; Ac4c = NC1(C(=O)O)CCC1; Ac3c = NC1(C(=O)O)CC1; Sar = CNCC(=O)O

Key:
[1] = target: GDP-bound KRAS wild-type protein (Homo sapiens, UniProt P01116); experiment: Binding to KRAS by surface plasmon resonance (SPR), Single Cycle Kinetics; conditions: GDP-bound KRAS wild-type protein, read-out: KRAS KD
[2] = target: GDP-bound NRAS wild-type protein (Homo sapiens, UniProt P01111); experiment: Binding to NRAS by surface plasmon resonance (SPR), Single Cycle Kinetics; conditions: SPR, GDP-bound NRAS wild-type protein vs GDP-bound KRAS wild-type protein
[3] = target: GDP-bound HRAS wild-type protein (Homo sapiens, UniProt P01112); experiment: Binding to HRAS by surface plasmon resonance (SPR), Single Cycle Kinetics; conditions: SPR, GDP-bound HRAS wild-type protein vs GDP-bound KRAS wild-type protein
[4] = SPR Single Cycle Kinetics, 1:1 binding model

Chain of GDP-bound HRAS wild-type protein (P01112 whole entry): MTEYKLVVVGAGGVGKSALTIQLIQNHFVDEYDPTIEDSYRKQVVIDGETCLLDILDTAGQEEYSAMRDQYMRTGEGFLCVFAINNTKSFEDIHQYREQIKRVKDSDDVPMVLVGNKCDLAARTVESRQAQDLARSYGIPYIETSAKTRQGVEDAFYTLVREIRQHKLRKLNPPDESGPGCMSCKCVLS
Chain of GDP-bound NRAS wild-type protein (P01111 whole entry): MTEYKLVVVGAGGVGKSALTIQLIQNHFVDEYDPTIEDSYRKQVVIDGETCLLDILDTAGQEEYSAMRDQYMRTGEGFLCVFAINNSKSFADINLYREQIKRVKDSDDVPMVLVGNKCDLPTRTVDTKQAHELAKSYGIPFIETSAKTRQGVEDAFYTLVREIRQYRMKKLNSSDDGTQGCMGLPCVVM
Chain of GDP-bound KRAS wild-type protein (P01116 whole entry): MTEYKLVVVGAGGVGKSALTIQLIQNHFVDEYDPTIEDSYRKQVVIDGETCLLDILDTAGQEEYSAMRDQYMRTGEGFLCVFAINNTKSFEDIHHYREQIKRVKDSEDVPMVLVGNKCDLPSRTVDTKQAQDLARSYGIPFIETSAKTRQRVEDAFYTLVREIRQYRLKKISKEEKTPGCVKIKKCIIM

Row | Compound | pKd [1, 4] | pKd ([1]; SPR, Single Cycle Kinetics) | NRAS/KRAS (ratio of KD value for NRAS to KD value for KRAS) [2] | HRAS/KRAS (ratio of KD value for HRAS to KD value for KRAS) [3] | NRAS/KRAS (ratio of KD value with respect to NRAS to KD value with respect to KRAS) [2] | HRAS/KRAS (ratio of KD value with respect to HRAS to KD value with respect to KRAS) [3]
1 | CCCN1C(=O)CN(C)C(=O)CN(C)C(=O)[C@H]([C@@H](C)CC)NC(=O)[C@H](CC(C)C)N(C)C(=O)C[C@@H](C(=O)N2CCOCC2)N(C)C(=O)[C@H](C2CCCC2)N(C)C(=O)C2(CCC2)NC(=O)[C@@H]2C[C@@H](OCC)CN2C(=O)[C@H](CCc2ccc(C(F)(F)F)c(Cl)c2)NC(=O)CN(C)C(=O)[C@@H]1Cc1ccc(C(F)(F)F)cc1 [PP0392] ([NMeL]I[Sar][Sar][NPrPhe(4-CF3)][Sar][hPhe(3-Cl-4-CF3)][Hyp](Et)[Ac4c][NMeGly(cPent)][NMeD]-Morpholide; lactam N-11) | 10.17 |  | B (a compound having 3 or more and less than 10 is denoted as B) | C (A compound having a KD ratio of 0.1 or more and less than 3 is denoted as C) |  | 
2 | CCO[C@@H]1C[C@H]2C(=O)NC3(CCC3)C(=O)N(C)[C@@H](C3CCCC3)C(=O)N(C)[C@H](C(=O)N(C)C)CC(=O)N(C)[C@@H](CC)C(=O)N[C@@H]([C@@H](C)CC)C(=O)N(C)CC(=O)N(C)[C@H]3CCCCCN(C3=O)[C@@H](Cc3ccc(F)c(OC)c3)C(=O)N(C)CC(=O)N[C@@H](CCc3cc(F)c(C(F)(F)F)c(F)c3)C(=O)N2C1 [PP0915] |  | 9.85 | B (a compound having 3 or more and less than 10 is denoted as B) | B (a compound having 3 or more and less than 10 is denoted as B) |  | 
3 | CC[C@H](C)[C@@H]1NC(=O)[C@H](CC(F)(F)F)N(C)C(=O)C[C@@H](C(=O)N2CCOCC2)N(C)C(=O)[C@H](C2CCCC2)N(C)C(=O)C2(CCCC2)NC(=O)[C@@H]2CCCN2C(=O)[C@H](CCc2cc(F)c(C(F)(F)F)c(F)c2)NC(=O)CN(C)C(=O)[C@H](Cc2ccc(C(F)(F)F)cc2)N2CCCC[C@@H](C2=O)N(C)C(=O)CN(C)C1=O [PP0594] | 10.14 |  |  |  | C (A compound having a KD ratio of 0.1 or more and less than 3 is denoted as C) | B (a compound having 3 or more and less than 10 is denoted as B)
4 | CC[C@H](C)[C@@H]1NC(=O)[C@H](CC(C)C)N(C)C(=O)C[C@@H](C(=O)N2CCOCC2)N(C)C(=O)[C@H](C2CCCC2)N(C)C(=O)C2(CCCC2)NC(=O)[C@@H]2CCCN2C(=O)[C@H](CCc2cc(F)c(C(F)(F)F)c(F)c2)NC(=O)CN(C)C(=O)[C@H](Cc2ccc(C(F)(F)F)cc2)N2CCCC[C@@H](C2=O)N(C)C(=O)[C@@H]2CCCN2C1=O [PP0547] | 9.44 |  |  |  | B (a compound having 3 or more and less than 10 is denoted as B) | B (a compound having 3 or more and less than 10 is denoted as B)
5 | CC[C@H](C)[C@@H]1NC(=O)[C@H](CC(C)C)N(C)C(=O)C[C@@H](C(=O)N2CCOCC2)N(C)C(=O)[C@H](C2CCCC2)N(C)C(=O)C2(CCCC2)NC(=O)[C@@H]2CCCN2C(=O)[C@H](CCc2ccc(C(F)(F)F)c(Cl)c2)NC(=O)CN(C)C(=O)[C@H](Cc2ccc(F)cc2)N(CC)C(=O)[C@@H]2CCN2C(=O)[C@H](C)N(C)C1=O [PP0218] ([NMeL]I[NMeA][Aze][NEtPhe(4-F)][Sar][hPhe(3-Cl-4-CF3)]P[Ac5c][NMeGly(cPent)][NMeD]-Morpholide; lactam N-11) | 9.70 |  | C (A compound having a KD ratio of 0.1 or more and less than 3 is denoted as C) | C (A compound having a KD ratio of 0.1 or more and less than 3 is denoted as C) |  | 

Now from value to compound, other results behind:

Row | pKd [1, 4] | pKd ([1]; SPR, Single Cycle Kinetics) | Compound | NRAS/KRAS (ratio of KD value for NRAS to KD value for KRAS) [2] | HRAS/KRAS (ratio of KD value for HRAS to KD value for KRAS) [3] | NRAS/KRAS (ratio of KD value with respect to NRAS to KD value with respect to KRAS) [2] | HRAS/KRAS (ratio of KD value with respect to HRAS to KD value with respect to KRAS) [3]
6 | 9.62 |  | CC[C@H](C)[C@@H]1NC(=O)[C@H](CC(C)C)N(C)C(=O)C[C@@H](C(=O)N2CCOCC2)N(C)C(=O)[C@H](C2CCCC2)N(C)C(=O)C2(CCCC2)NC(=O)[C@@H]2CCCN2C(=O)[C@H](CCc2cc(F)c(C(F)(F)F)c(F)c2)NC(=O)CN(C)C(=O)[C@H](Cc2ccc(C(F)(F)F)cc2)N2CCCC[C@@H](C2=O)N(C)C(=O)CN(CC)C1=O [PP0545] |  |  | B (a compound having 3 or more and less than 10 is denoted as B) | B (a compound having 3 or more and less than 10 is denoted as B)
7 |  | 9.52 | CCC[C@H]1C(=O)N[C@@H]([C@@H](C)CC)C(=O)N(C)CC(=O)N(C)[C@H]2C/C=C\CCN(C2=O)[C@@H](Cc2ccc(C(F)(F)F)cc2)C(=O)N(C)CC(=O)N[C@@H](CCc2ccc(C(F)(F)F)c(Cl)c2)C(=O)N2C[C@H](OCC)C[C@H]2C(=O)NC2(CC(C)(C)C2)C(=O)N(C)[C@@H](CC(C)C)C(=O)N(C)[C@H](C(=O)N(C)C)CC(=O)N1C [PP2977] | A (a compound having 10 or more and less than 20 is denoted as A) | A (a compound having 10 or more and less than 20 is denoted as A) |  | 
8 | 9.42 |  | CCCN1C(=O)[C@@H]2CCN2C(=O)[C@H](C)N(C)C(=O)[C@H]([C@@H](C)CC)NC(=O)[C@H](CC(C)C)N(C)C(=O)C[C@@H](C(=O)N(C)C)NC(=O)[C@H](C2CCCC2)N(C)C(=O)C2(CCCC2)NC(=O)[C@@H]2CCCN2C(=O)[C@H](CCc2ccc(C(F)(F)F)c(Cl)c2)NC(=O)CN(C)C(=O)[C@@H]1Cc1ccc(C(F)(F)F)cc1 [PP0379] ([NMeL]I[NMeA][Aze][NPrPhe(4-CF3)][Sar][hPhe(3-Cl-4-CF3)]P[Ac5c][NMeGly(cPent)]D-NMe2; lactam N-11) | C (A compound having a KD ratio of 0.1 or more and less than 3 is denoted as C) | B (a compound having 3 or more and less than 10 is denoted as B) |  | 
9 | 9.60 |  | CCCN1C(=O)CN(C)C(=O)CN(C)C(=O)[C@H]([C@@H](C)CC)NC(=O)[C@H](CC(C)C)N(C)C(=O)C[C@@H](C(=O)N2CCOCC2)N(C)C(=O)[C@H](C2CCCC2)N(C)C(=O)C2(CC2)NC(=O)[C@@H]2CCCN2C(=O)[C@H](CCc2ccc(C(F)(F)F)c(Cl)c2)NC(=O)CN(C)C(=O)[C@@H]1Cc1ccc(C(F)(F)F)cc1 [PP0229] ([NMeL]I[Sar][Sar][NPrPhe(4-CF3)][Sar][hPhe(3-Cl-4-CF3)]P[Ac3c][NMeGly(cPent)][NMeD]-Morpholide; lactam N-11) | B (a compound having 3 or more and less than 10 is denoted as B) | B (a compound having 3 or more and less than 10 is denoted as B) |  | 
10 |  | 9.80 | CCO[C@@H]1C[C@H]2C(=O)NC3(CC(C)(C)C3)C(=O)N(C)[C@@H](C3CCCC3)C(=O)N(C)[C@H](C(=O)N(C)CC)CC(=O)N(C)[C@@H](C3CCC3)C(=O)N[C@@H]([C@@H](C)CC)C(=O)N(C)CC(=O)N(C)[C@H]3C/C=C\CCN(C3=O)[C@@H](Cc3ccc(C(F)(F)F)cc3)C(=O)N(C)CC(=O)N[C@@H](CCc3cc(F)c(C(F)(F)F)c(F)c3)C(=O)N2C1 [PP2038] | A (a compound having 10 or more and less than 20 is denoted as A) | A (a compound having 10 or more and less than 20 is denoted as A) |  | 
